In patent US11254668B2, “Pyrazolo[1,5-A]pyrazin-4-yl and related derivatives” (Pfizer Inc., priority 2017, dated 2022):
Like-named read-outs stand apart in the source and are kept apart here.

Assays:
Format in all cases: biochemical
[1] = biological target: TYK2 (Homo sapiens (Human), UniProt P29597); assay: JAK Caliper Enzyme Assay at 1 mM ATP, TYK2
In short: (§1)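 Read-out is Caliper LabChip mobility-shift separation of phosphorylated from unphosphorylated fluorescent peptide after EDTA termination. Each JAK kinase domain (human, recombinant) runs at 1 mM ATP at room temperature, adjusted for 20–30% turnover. Inhibition is normalized to DMSO and positive-control wells and plotted against concentration.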

[2] = biological target: JAK2 (Homo sapiens (Human), UniProt O60674); assay: JAK Caliper Enzyme Assay at 1 mM ATP, JAK2
Chain of JAK2 (O60674 849-1124): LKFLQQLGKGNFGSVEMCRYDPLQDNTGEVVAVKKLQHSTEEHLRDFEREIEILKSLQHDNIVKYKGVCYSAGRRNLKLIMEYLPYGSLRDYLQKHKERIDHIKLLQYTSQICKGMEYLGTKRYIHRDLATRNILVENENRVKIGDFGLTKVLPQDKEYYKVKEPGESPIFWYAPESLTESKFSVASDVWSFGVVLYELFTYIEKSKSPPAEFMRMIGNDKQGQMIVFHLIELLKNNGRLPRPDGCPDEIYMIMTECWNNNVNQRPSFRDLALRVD
In short: as §1

[3] = biological target: JAK1 (Homo sapiens (Human), UniProt P23458); assay: JAK Caliper Enzyme Assay at 1 mM ATP, JAK1
Chain of JAK1 (P23458 875-1153): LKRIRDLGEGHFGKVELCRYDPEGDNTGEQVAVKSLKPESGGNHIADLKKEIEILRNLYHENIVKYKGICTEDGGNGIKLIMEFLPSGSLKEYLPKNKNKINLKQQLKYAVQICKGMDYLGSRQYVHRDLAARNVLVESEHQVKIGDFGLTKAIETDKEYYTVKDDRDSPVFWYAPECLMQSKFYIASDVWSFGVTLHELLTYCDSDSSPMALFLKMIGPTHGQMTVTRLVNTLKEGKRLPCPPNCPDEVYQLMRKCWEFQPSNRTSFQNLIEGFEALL
In short: (§2)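 Recombinant human kinase domains phosphorylated a fluorescent synthetic peptide at room temperature, with enzyme level and time tuned to 20% to 30% conversion; EDTA stop buffer ended reactions. Mobility-shift separation gave percent product from peak heights, normalised to DMSO and positive controls, and IC50s came from concentration–effect curves.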

[4] = biological target: JAK3 (Homo sapiens (Human), UniProt P52333); assay: JAK Caliper Enzyme Assay at 1 mM ATP, JAK3
Chain of JAK3 (P52333 822-1111): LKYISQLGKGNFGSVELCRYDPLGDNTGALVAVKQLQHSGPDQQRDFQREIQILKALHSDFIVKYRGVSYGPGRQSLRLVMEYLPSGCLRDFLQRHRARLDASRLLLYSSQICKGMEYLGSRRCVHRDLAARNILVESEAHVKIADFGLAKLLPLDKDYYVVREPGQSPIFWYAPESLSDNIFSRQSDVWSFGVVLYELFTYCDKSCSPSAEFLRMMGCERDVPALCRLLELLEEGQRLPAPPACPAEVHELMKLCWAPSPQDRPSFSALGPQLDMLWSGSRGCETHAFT
In short: as §2

Chain of TYK2 (P29597 897-1176): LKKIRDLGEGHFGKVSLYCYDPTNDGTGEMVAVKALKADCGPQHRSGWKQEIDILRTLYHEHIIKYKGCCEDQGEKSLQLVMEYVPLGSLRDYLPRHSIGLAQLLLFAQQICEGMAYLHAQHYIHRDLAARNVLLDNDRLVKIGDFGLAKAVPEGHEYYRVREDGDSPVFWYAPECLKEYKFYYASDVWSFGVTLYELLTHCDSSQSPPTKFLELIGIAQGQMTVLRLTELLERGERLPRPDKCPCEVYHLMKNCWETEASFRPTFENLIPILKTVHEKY

## CS(=O)(=O)N1CC(CC#N)(n2ccc(-c3nc(-c4cnn(CCO)c4)cc4ncccc34)n2)C1 [Example 125, [3-(3-{7-[1-(2-hydroxyethyl)-1H-pyrazol-4-yl]-1,6-naphthyridin-5-yl}-1H-pyrazol-1-yl)-1-(methylsulfonyl)azetidin-3-yl]acetonitrile]
[1]
  IC50: 0.033 µM
[2]
  IC50: 0.162 µM
[3]
  IC50: 0.965 µM
[4]
  IC50: > 10 µM

## N#CC[C@]1(n2ncc(-c3cc(-c4c[nH]nc4CO)cc4ncccc34)n2)C[C@@H](C#N)C1 [Example 318, cis-3-(cyanomethyl)-3-(4-{7-[3-(hydroxymethyl)-1H-pyrazol-4-yl]quinolin-5-yl}-2H-1,2,3-triazol-2-yl)cyclobutanecarbonitrile]
[1]
  IC50: 0.017 µM
[2]
  IC50: 0.137 µM
[3]
  IC50: 0.54 µM
[4]
  IC50: 9.27 µM

## N#CC[C@]1(n2ccc(-c3nc(-c4cccc(C(N)=O)n4)cc4ncccc34)n2)C[C@H](C#N)C1 [Example 214, 6-(5-{1-[cis-3-cyano-1-(cyanomethyl)cyclobutyl]-1H-pyrazol-3-yl}-1,6-naphthyridin-7-yl)pyridine-2-carboxamide]
[1]
  IC50: 0.053 µM
[2]
  IC50: 0.471 µM
[3]
  IC50: 2.02 µM
[4]
  IC50: > 10 µM

## CO[C@H]1C[C@](CC#N)(n2ccc(-c3nc(-c4cnn(CCO)c4)cc4ncccc34)n2)C1 [Example 129, [trans-1-(3-{7-[1-(2-hydroxyethyl)-1H-pyrazol-4-yl]-1,6-naphthyridin-5-yl}-1H-pyrazol-1-yl)-3-methoxycyclobutyl]acetonitrile]
[1]
  IC50: 0.133 µM
[2]
  IC50: 1.23 µM
[3]
  IC50: 5.92 µM
[4]
  IC50: > 10 µM

## N#CC[C@]1(n2ncc(-c3cc(-c4cn[nH]c4)cc4ncccc34)n2)C[C@@H](C#N)C1 [Example 316, cis-3-(cyanomethyl)-3-{4-[7-(1H-pyrazol-4-yl)quinolin-5-yl]-2H-1,2,3-triazol-2-yl}cyclobutanecarbonitrile]
[1]
  IC50: 0.008 µM
[2]
  IC50: 0.048 µM
[3]
  IC50: 0.122 µM
[4]
  IC50: 2.73 µM

## Cc1cc(-c2cc3ncccc3c(-c3ccn([C@]4(CC#N)C[C@H](C#N)C4)n3)n2)nn1C [Example 59, cis-3-(cyanomethyl)-3-{3-[7-(1,5-dimethyl-1H-pyrazol-3-yl)-1,6-naphthyridin-5-yl]-1H-pyrazol-1-yl}cyclobutanecarbonitrile]
[1]
  IC50: 0.016 µM
[2]
  IC50: 0.092 µM
[3]
  IC50: 0.88 µM
[4]
  IC50: > 10 µM

## CS(=O)(=O)N1CC(CC#N)(n2ccc(-c3nc(-c4cnn5cccnc45)cc4ncccc34)n2)C1 [Example 168, [1-(methylsulfonyl)-3-{3-[7-(pyrazolo[1,5-a]pyrimidin-3-yl)-1,6-naphthyridin-5-yl]-1H-pyrazol-1-yl}azetidin-3-yl]acetonitrile]
[1]
  IC50: 0.592 µM
[2]
  IC50: 6.59 µM
[3]
  IC50: 8.82 µM
[4]
  IC50: > 10 µM

## N#CCC1(n2ccc(-c3nc(-c4ccc(O)c(C(N)=O)n4)cc4ncccc34)n2)CC(C#N)C1 (stereo not drawn) [Example 226, 6-(5-{1-[trans-3-cyano-1-(cyanomethyl)cyclobutyl]-1H-pyrazol-3-yl}-1,6-naphthyridin-7-yl)-3-hydroxypyridine-2-carboxamide]
[1]
  IC50: 0.112 µM
[2]
  IC50: 0.929 µM
[3]
  IC50: 3.3 µM
[4]
  IC50: > 10 µM

## CS(=O)(=O)N1CC(CC#N)(n2ccc(-c3nc(-c4cnc5c(c4)NCCN5)cc4ncccc34)n2)C1 [Example 170, [1-(methylsulfonyl)-3-{3-[7-(1,2,3,4-tetrahydropyrido[2,3-b]pyrazin-7-yl)-1,6-naphthyridin-5-yl]-1H-pyrazol-1-yl}azetidin-3-yl]acetonitrile]
[1]
  IC50: 0.056 µM
[2]
  IC50: 0.399 µM
[3]
  IC50: 1.43 µM
[4]
  IC50: > 10 µM

## N#CCC1(n2ccc(-c3nc(-c4cn[nH]n4)cc4ncccc34)n2)CN(CC(F)(F)F)C1 [Example 153, [3-{3-[7-(2H-1,2,3-triazol-4-yl)-1,6-naphthyridin-5-yl]-1H-pyrazol-1-yl}-1-(2,2,2-trifluoroethyl)azetidin-3-yl]acetonitrile]
[1]
  IC50: 0.239 µM
[2]
  IC50: 3.35 µM
[3]
  IC50: 5.84 µM
[4]
  IC50: > 10 µM

## N#CC[C@]1(n2ccc(-c3nc(-c4cc[nH]n4)cc4ncccc34)n2)C[C@@H](C(N)=O)C1 [Example 24, cis-3-(cyanomethyl)-3-{3-[7-(1H-pyrazol-3-yl)-1,6-naphthyridin-5-yl]-1H-pyrazol-1-yl}cyclobutanecarboxamide]
[1]
  IC50: 0.167 µM
[2]
  IC50: 1.69 µM
[3]
  IC50: 3.67 µM
[4]
  IC50: > 10 µM

## N#CCC1(n2ccc(-c3nc(-c4ccn[nH]4)cc4ncccc34)n2)CC(C(N)=O)C1 (stereo not drawn) [Example 25, trans-3-(cyanomethyl)-3-{3-[7-(1H-pyrazol-5-yl)-1,6-naphthyridin-5-yl]-1H-pyrazol-1-yl}cyclobutanecarboxamide]
[1]
  IC50: 1.65 µM
[2]
  IC50: 8.68 µM
[3]
  IC50: > 10 µM
[4]
  IC50: > 10 µM

## CO[C@H]1C[C@@](CC#N)(n2ccc(-c3nc(-c4cn[nH]c4)cc4ncccc34)n2)C1 [Example 80, (cis-3-methoxy-1-{3-[7-(1H-pyrazol-4-yl)-1,6-naphthyridin-5-yl]-1H-pyrazol-1-yl}cyclobutyl)acetonitrile]
[1]
  IC50: 0.047 µM
[2]
  IC50: 0.927 µM
[3]
  IC50: 1.06 µM
[4]
  IC50: > 10 µM

## CS(=O)(=O)N1CC(CC#N)(n2ccc(-c3nc(-c4cnn(C(F)(F)F)c4)cc4ncccc34)n2)C1 [Example 118, [1-(methylsulfonyl)-3-(3-{7-[1-(trifluoromethyl)-1H-pyrazol-4-yl]-1,6-naphthyridin-5-yl}-1H-pyrazol-1-yl)azetidin-3-yl]acetonitrile]
[1]
  IC50: 0.843 µM
[2]
  IC50: 4.17 µM
[3]
  IC50: 9.06 µM
[4]
  IC50: > 10 µM

## CS(=O)(=O)N1CC(CC#N)(n2ccc(-c3nc(-c4ccc(=O)[nH]c4)cc4ncccc34)n2)C1 [Example 245, [1-(methylsulfonyl)-3-{3-[7-(6-oxo-1,6-dihydropyridin-3-yl)-1,6-naphthyridin-5-yl]-1H-pyrazol-1-yl}azetidin-3-yl]acetonitrile]
[1]
  IC50: 0.011 µM
[2]
  IC50: 0.131 µM
[3]
  IC50: 0.22 µM
[4]
  IC50: > 10 µM

## CO[C@H]1C[C@](CC#N)(n2ncc(-c3cc(-c4cc[nH]n4)cc4ncccc34)n2)C1 [Example 305, (trans-3-methoxy-1-{4-[7-(1H-pyrazol-3-yl)quinolin-5-yl]-2H-1,2,3-triazol-2-yl}cyclobutyl)acetonitrile]
[1]
  IC50: 0.035 µM
[2]
  IC50: 1.05 µM
[3]
  IC50: 2.56 µM
[4]
  IC50: > 10 µM

## CO[C@H]1C[C@@](CC#N)(n2ccc(-c3nc(-c4ccc(=O)[nH]c4)cc4ncccc34)n2)C1 [Example 247, (cis-3-methoxy-1-{3-[7-(6-oxo-1,6-dihydropyridin-3-yl)-1,6-naphthyridin-5-yl]-1H-pyrazol-1-yl}cyclobutyl)acetonitrile]
[1]
  IC50: 0.049 µM
[2]
  IC50: 0.778 µM
[3]
  IC50: 1.34 µM
[4]
  IC50: > 10 µM

## Cc1cn([C@]2(CC#N)C[C@@H](C#N)C2)nc1-c1nc(-c2cc(N)n(C)n2)cc2ncccc12 [Example 278, trans-3-{3-[7-(5-amino-1-methyl-1H-pyrazol-3-yl)-1,6-naphthyridin-5-yl]-4-methyl-1H-pyrazol-1-yl}-3-(cyanomethyl)cyclobutanecarbonitrile]
[1]
  IC50: 1.43 µM
[2]
  IC50: 9.84 µM
[3]
  IC50: > 10 µM
[4]
  IC50: > 10 µM

## N#CC[C@]1(n2ncc(-c3cc(-c4cccc(C(=O)O)n4)cc4ncccc34)n2)C[C@H](C#N)C1 [Example 370, 6-(5-{2-[cis-3-cyano-1-(cyanomethyl)cyclobutyl]-2H-1,2,3-triazol-4-yl}quinolin-7-yl)pyridine-2-carboxylic acid]
[1]
  IC50: 0.03 µM
[2]
  IC50: 0.345 µM
[3]
  IC50: 2.29 µM
[4]
  IC50: > 10 µM

## CCN1CC(CC#N)(n2ccc(-c3nc(N4CCOCC4)cc4ncccc34)n2)C1 [Example 264, (1-ethyl-3-{3-[7-(morpholin-4-yl)-1,6-naphthyridin-5-yl]-1H-pyrazol-1-yl}azetidin-3-yl)acetonitrile]
[1]
  IC50: 6.99 µM
[2]
  IC50: > 10 µM
[3]
  IC50: > 10 µM
[4]
  IC50: > 10 µM

## C[C@]1(C#N)C[C@@](CC#N)(n2ccc(-c3nc(-c4ccnc(N)c4)cc4ncccc34)n2)C1 [Example 201, cis-3-{3-[7-(2-aminopyridin-4-yl)-1,6-naphthyridin-5-yl]-1H-pyrazol-1-yl}-3-(cyanomethyl)-1-methylcyclobutanecarbonitrile]
[1]
  IC50: 0.031 µM
[2]
  IC50: 0.177 µM
[3]
  IC50: 0.308 µM
[4]
  IC50: > 10 µM

## N#CC[C@]1(n2ncc(-c3cc(-c4cnc5ncccn45)cc4ncccc34)n2)C[C@@H](C#N)C1 [Example 417, cis-3-(cyanomethyl)-3-{4-[7-(imidazo[1,2-a]pyrimidin-3-yl)quinolin-5-yl]-2H-1,2,3-triazol-2-yl}cyclobutanecarbonitrile]
[1]; JAK Caliper enzyme assay
  IC50: 0.11 µM
[2]; JAK Caliper enzyme assay
  IC50: 0.291 µM
[3]; JAK Caliper enzyme assay
  IC50: 7.47 µM
[4]; JAK Caliper enzyme assay
  IC50: > 10 µM

## CS(=O)(=O)N1CC(CC#N)(n2ccc(-c3nc(-c4cnc(N)nc4)cc4ncccc34)n2)C1 [Example 238, [3-{3-[7-(2-aminopyrimidin-5-yl)-1,6-naphthyridin-5-yl]-1H-pyrazol-1-yl}-1-(methylsulfonyl)azetidin-3-yl]acetonitrile]
[1]
  IC50: 1.92 µM
[2]
  IC50: 8.97 µM
[3]
  IC50: > 10 µM
[4]
  IC50: > 10 µM

## N#CC[C@]1(n2cc(-c3cc(-c4ccc(N)nc4)cc4nccn34)cn2)C[C@@H](C#N)C1 [Example 469, cis-3-{4-[7-(6-aminopyridin-3-yl)imidazo[1,2-a]pyridin-5-yl]-1H-pyrazol-1-yl}-3-(cyanomethyl)cyclobutanecarbonitrile]
[1]; JAK Caliper enzyme assay
  IC50: 0.102 µM
[2]; JAK Caliper enzyme assay
  IC50: 1.04 µM
[3]; JAK Caliper enzyme assay
  IC50: 2.39 µM
[4]; JAK Caliper enzyme assay
  IC50: > 10 µM
